Earlier results on 1 molecule are cited in patent US8685425B2, “Microencapsulation product and process” (priority 2004, dated 2014).

SMILES strings stand for the structures.

For `CCN(CC)C(=O)c1cccc(C)c1` [DEET, N,N-diethyl-m-toluamide], the “solubility of DEET in water” value was “around 1%”.
